Marks after values point to notes of the source that are not given here.
Tests used:
Assay type in all cases: in vivo, rat
CUMS rats [1] = test: Elevated-plus maze test in CUMS rats
Experimental: (§1) A series of experiments were conducted using the chronic unpredictable mild stress (CUMS) rodent model. Rats were exposed daily to any two of the following mild physiological stresses selected at random: • 12 hours of water deprivation • 12 hours of food deprivation • 8 hours of damp sawdust • 24 hours of reversed light/dark cycle • 2 minutes of tail pinching • 1 hour of 60 Hz noise • 15 minutes of cage shaking • Swimming in 4° C. water for 5-10 minutes • 2 hours of restraining.
(§2) Six groups of rats were assessed: • 1. Control rats: rats raised normally without stress treatments and without nutritional or drug interventions. • 2. CUMS rats: rats subjected to the CUMS protocol but without nutritional or drug interventions. • 3. CUMS HN001: rats subjected to the CUMS protocol and given HN001. • 4. CUMS HN019: rats subjected to the CUMS protocol and given HN019. • 5. CUMS HN001+HN019: rats subjected to the CUMS protocol given both HN001 and HN019. • 6.
(§3) Baseline assessments were then conducted, including blood collection. For the next 40 days, rats in groups 2-6 were exposed to CUMS treatments to induce depression symptoms associated with stress and anxiety.
(§4) Tests were then carried out to assess rat behaviours, such as the open field test and the elevated maze test (see FIG. 2). These are standard ways to measure rat stress and anxiety traits.

CUMS rats [2] = test: Open field test in CUMS (chronic unpredictable mild stress) rats
Experimental: as §1, §2, §3, §4

[3] = system: Adrenocorticotropic Hormone (ACTH); test: Serum adrenocorticotropic hormone content in CUMS rats
Experimental: as §1, §2, §3

TNF-α = TNF-α content in serum, brain and colon of CUMS rats
Experimental: as §1, §2, §3
(§5) A series of blood markers were assessed.

IL-6 = IL-6 content in serum, brain and colon of CUMS rats
Experimental: as §1, §2, §3, §5

[4] = system: Corticotropin Releasing Hormone (CRH); test: Serum corticotropin releasing hormone content in CUMS rats; conditions: after CUMS, before intervention
Experimental: as §1, §2, §3

[5] = system: TNF-alpha, IL-6, IL-1β and IL-18; test: Cytokines TNF-alpha, IL-6, IL-1β and IL-18 in serum, brain tissue and colon of CUMS rats; conditions: versus CUMS
Experimental: as §1, §2, §3, §5

brain and colon tissue = test: HE staining of brain and colon tissues of CUMS rats; conditions: FIG. 5
Source text: Brain tissues included two regions from the hippocampus (Dentate Gyrus (DG) and CA1) and a region from the cortex (P2).
Brain and colon tissue were stained using the HE method. Brain tissue included two regions from the hippocampus (Dentate Gyrus (DG) and CA1) and a region from the cortex (P2). The results are shown in FIG. 5 and reveal that for the control group, neurons in hippocampal regions (dentate gyrus (DG) and Ca1) and the cortex (P2) were normal, orderly, tightly packed cells. The cells had expected morphology, homogeneous cytoplasmic staining, and no increased interstitial or abnormal changes.
For the colon tissue, control intestinal villi were arranged neatly, with normal cell morphology and no obvious damage was seen.

[6] = after CUMS, before intervention
[7] = base line, before CUMS and before intervention
[8] = serum, after CUMS with intervention
[9] = serum, after CUMS, before intervention

SMILES: CNCCC(Oc1ccc(C(F)(F)F)cc1)c1ccccc1 (stereo not shown) [Flu, fluoxetine, reference compound]
- Time in Closed Arms in Elevated Plus Maze, After intervention (x ± S) (CUMS rats [1]; after CUMS with intervention): 224.96 ± 18.71^b Seconds
- Total Distance Travelled in Elevated Maze Test, After intervention (x ± S) (CUMS rats [1]; after CUMS with intervention): 6.19 ± 1.75^b Metres
- Time in Closed Arms in Elevated Plus Maze, After CUMS (x ± S) (CUMS rats [1]; [6]): 292.57 ± 8.90^a Seconds
- Total Distance Travelled in Elevated Maze Test, After CUMS (x ± S) (CUMS rats [1]; [6]): 2.37 ± 1.12^a Metres
- Time in Closed Arms in Elevated Plus Maze, Base line (x ± S) (CUMS rats [1]; [7]): 240.31 ± 16.95 s
- Total Distance Travelled in Elevated Maze Test, Base line (x ± S) (CUMS rats [1]; [7]): 7.44 ± 1.38 Metres
- Total Distance Travelled in Open Field Test, After CUMS only (x ± S) (CUMS rats [2]; after 40 days CUMS, before intervention): 2.89 ± 2.15^a Metres
- Vertical Movement (Number of Times Standing Up) in Open Field Test, After intervention (x ± S) (CUMS rats [2]; after CUMS with intervention): 11.20 ± 3.49^b
- Vertical Movement (Number of Times Standing Up) in Open Field Test, After CUMS (x ± S) (CUMS rats [2]; [6]): 2.00 ± 1.79^a
- Total Distance Travelled in Open Field Test, Base line (x ± S) (CUMS rats [2]; [7]): 23.34 ± 2.98 Metres
- Vertical Movement (Number of Times Standing Up) in Open Field Test, Base line (x ± S) (CUMS rats [2]; [7]): 17.20 ± 8.04
- Serum Adrenocorticotropic Hormone (ACTH) Content, After intervention ([3]; after CUMS with intervention): 2.90 ± 2.20^b pg/ml
- Serum Adrenocorticotropic Hormone (ACTH) Content, After CUMS [3, 6]: 5.58 ± 1.41^a pg/ml
- TNF-α Content, Brain (TNF-α; brain, end of experiment): 48.62 ± 7.26^b pg/ml
- TNF-α Content, Colon (TNF-α; colon, end of experiment): 69.09 ± 12.48^b pg/ml
- TNF-α Content, serum-after intervention (TNF-α; [8]): 9.83 ± 3.83^b pg/ml
- TNF-α Content, serum-after CUMS (TNF-α; [9]): 23.35 ± 6.46^a pg/ml
- IL-6 Content, Brain (IL-6; brain, end of experiment): 19.35 ± 4.29^b pg/ml
- IL-6 Content, Colon (IL-6; colon, end of experiment): 30.89 ± 7.22^b pg/ml
- IL-6 Content, serum-after intervention (IL-6; [8]): 9.83 ± 3.83^b pg/ml
- IL-6 Content, serum-after CUMS (IL-6; [9]): 13.35 ± 6.46^a pg/ml
- Serum Corticotropin Releasing Hormone (CRH) Content, After CUMS [4]: 5.50 ± 2.02^a pg/ml
- Levels of cytokines TNF-alpha, IL-6, IL-1β and IL-18 [5]: reduced levels of cytokines
- Morphology of hippocampus (DG, CA1) and cortex (P2) (brain and colon tissue; brain): CUMS-associated damage was largely reduced
- Morphology of colon tissue (intestinal villi, mucosa) (brain and colon tissue; colon): largely reduced
